Legend:
LPS-primed d-THP-1 cells [1] = assay: Nigericin-induced pyroptotic cell death observed by field emission scanning electron microscopy; assay type: cell-based, Human; details: rebastinib 1 μM or glibenclamide 50 μM, 30 min, nigericin 5 μM 30 min, SEM images
Protocol: d-THP-1 cells (treated with LPS, the tested compounds, and the stimulant as described above or untreated) were fixed, in sequence, by use of 4% paraformaldehyde and 2.5% glutaraldehyde, respectively for 10 min, washed with PBS, then reacted with osmium tetroxide (OsO4) for 30 min; the cells were thoroughly washed with distilled water, then incubated with tannic acid for 30 min. […] Repeated the 100% ethanol dehydration step 3 times. The specimens were then dried with a mixture of CO2 and ethanol supercritical condition using Critical Point Dryer (CPD) (LEICAME CPD 300). The dried specimens were subsequently fixed on an alumina platform, and sputted with gold ions (ion sputter, JEOL JFC-1100E, operated at 1-2 mA for 60 sec) before subjecting to observation under Field Emission Scanning Electron Microscope (FE-SEM).
(§1) Pyroptosis is a form of programmed cell death. In this process, immune cells recognize foreign danger signals within themselves, release pro-inflammatory cytokines, swell, burst, and die. In this example, the effects of the present compound on nigericin-induced pyroptotic cell death and LDH release were investigated, in which the pyroptosis phenomena was observed using Field Emission Scanning Electron Microscope, and LDH level was determined by enzymatic assay.

LPS-primed d-THP-1 cells [2] = assay: Nigericin-induced ASC speck formation (fluorescent microscopy); assay type: cell-based, Human; details: rebastinib 1 μM or glibenclamide 50 μM, 30 min, nigericin 5 μM 30 min, anti-ASC staining
Protocol: d-THP-1 cells (treated with LPS, the tested compound, and the stimulant as described above or untreated) were fixed by 4% paraformaldehyde, washed with PBS (3 times), treated with Triton-X-100 (0.1%) for 10 min, washed with PBS (3 times), added 5% BSA for 1 hr, then washed with PBS (3 times) before the primary antibody (anti-ASC) was added. The primary anti-ASC antibody labeled cells were incubated at 4° C. overnight, then was labeled with the secondary antibody at RT for 1 hr, washed with PBS (3 times), added Hoechst 33342, washed with PBS (3 times), added ProLong™ Gold antifade reagent, then photographed using Fluorescent Microscope (IX81 Olympus, with Lumen 200 Fluorescence Illumination System). A hallmark of inflammasome activation is the ASC speck, a micrometre-sized structure formed by the inflammasome adaptor protein ASC (apoptosis-associated speck-like protein containing a CARD), which consists of a pyrin domain (PYD) and a caspase recruitment domain (CARD). In this example, the effect of the present compound on nigericin-induced formation of ASC speck in LPS-primed d-THP-1 cells was observed using fluorescence microscope, and results are illustrated in FIG. 8.

LPS-primed d-THP-1 cells [3] = assay: Nigericin-induced IL-18 secretion in LPS-primed d-THP-1 cells (ELISA); assay type: cell-based, Human; details: rebastinib 0.01-1 μM, 30 min pre-incubation, nigericin 5 μM 30 min
Protocol: (§2) Human monocytic cell line THP-1 was purchased from American Type Culture Collection (ATCC) and maintained in RPMI-1640 Medium supplemented with 10% fetal bovine serum (FBS), 1% antibiotic-antimycotic solution, 0.1% (3-mercaptoethanol ((3-ME), and phenol red indicator in an incubator at 37° C. with 5% CO2. The medium was changed every 2-3 days.
(§3) To induce differentiation, THP-1 cells (cell density was about 5×10^5/mL) was cultivated in a serum-free medium containing 100 nM of phorbol 12-myristate 13-acetate (PMA) for about 4 hr. Then, the PMA-containing medium was replaced with a fresh RPMI-1640 medium, and the cultivation was continued for another 2 days to allow the THP-1 cells to differentiate into macrophage-like cells, hereafter termed “d-THP-1 cells.”
(§4) d-THP1 cells were first treated with 100 ng/mL of lipopolysaccharide (LPS) for 3 hr, then LPS-containing medium was replaced by a fresh medium. […]
(§5) The level of IL-1β and IL-18 was independently determined by ELISA assay kit (R&D system) in accordance with the manufacturer's protocol. The level of […] and IL-18 was determined from the 450 and 540 nm absorbance measured by Multiskan GO multiplate reader. […]

[4] = tested on: LPS/D-GalN-induced acute liver failure in mice; assay: Animal model of LPS/D-GalN-induced acute liver failure; assay type: in vivo, mice (C57BL/6); details: for acute liver failure: liver bleeding and inflammation (gross liver morphology): rebastinib 5 or 10 mg/kg i.v. 1 hr before LPS (40 μg/kg)/D-GalN (400 mg/kg) i.p.
Protocol: (§6) C57BL/6 mice (7-10-week-old, each weighted about 20-25 g) were maintained in micro-isolator units on a standard laboratory diet. Animals were housed under humidity- and temperature-controlled conditions and the light/dark cycle was set at 12-hr intervals, maintained under specified and opportunistic pathogen-free conditions. All animal studies were conducted under protocol approved by the Animal Care and Use Committee of Chang Gung University (Taipei, Taiwan).
Mice were randomly divided into 4 groups. The test compound rebastinib (5 or 10 mg/Kg) or a control solvent (80% saline, 10% ethanol, 10% Tween-20) was injected through the tail vein of each mice. The mice were allowed to rest for 1 hr, then LPS ([…])/D-GalN (400 mg/Kg) was injected through abdominal space for 5 hr to induce acute liver failure. Blood samples and tissue samples were respectively collected. Blood samples were analyzed for their respective levels of LDH, AST, ALT, BUN, and CRE. The livers were fixed in 10% formalin for tissue section. The liver sections were stained with hematoxylin and eosin (H&E).
In this example, animal model of acute liver failure was used to investigate the effect of the present compound on acute liver failure. Briefly, animals were first subjected to LPS/D-GalN treatment (LPS: 40 […]) to create acute liver failure, then blood and tissue samples with or without treatment of the present compound were taken, which were then subjected to biochemistry and microscopy analysis.

LPS-induced ALI in mice = assay: Animal model of LPS-induced acute lung injury (ALI); assay type: in vivo, mice (C57BL/6); details: rebastinib 10 mg/kg i.v. 1 hr before intra-tracheal LPS 2 mg/kg, lungs collected 5 hr later
Protocol: as §6
ALI was induced by intra-tracheal spray of 2 mg/kg LPS in 7-8 weeks old C57BL/6 mice. Mice were fasted overnight and then intravenously injected with 50 ul of rebastinib (10 mg/kg) or an equal volume of solvent (vehicle). After 1 hr, mice were instilled with an intra-tracheal spray of 2 mg/kg LPS (dissolved in 40 μl 0.9% saline) or 0.9% saline under anesthesia. 5 hr later, mice were sacrificed and the lungs were collected. The lungs were fixed in 10% formalin for tissue section. The lung sections were stained with hematoxylin and eosin (H&E).
In this example, animal model of ALI was used to investigate the effect of the present compound on ALI. Mice were intravenously injected with 50 ul of rebastinib (10 mg/kg) or an equal volume of solvent (vehicle). After 1 hr, mice were instilled with an intra-tracheal spray of 2 mg/kg LPS (dissolved in 40 μl 0.9% saline) or 0.9% saline under anesthesia. […]

LPS-primed d-THP-1 cells [5] = assay: Imiquimod-induced IL-1β secretion in LPS-primed d-THP-1 cells (ELISA); assay type: cell-based, Human; details: rebastinib 0.003-1 μM, 30 min pre-incubation, IMQ 100 μM 2 hr
Protocol: as §2, §3, §4, §5

LPS-primed d-THP-1 cells [6] = assay: Nigericin-induced pyroptotic LDH release; assay type: cell-based, Human; details: rebastinib 0.01-1 μM, 30 min, nigericin 5 μM 30 min
Protocol: as §1

LPS-primed d-THP-1 cells [7] = assay: Nigericin-induced IL-1β secretion in LPS-primed d-THP-1 cells (ELISA); assay type: cell-based, Human; details: rebastinib 0.01-1 μM, 30 min pre-incubation, nigericin 5 μM 30 min, IL-1β in supernatant by ELISA
Protocol: as §2, §3, §4, §5

LPS-primed d-THP-1 cells [8] = assay: MSU-induced IL-1β secretion in LPS-primed d-THP-1 cells (ELISA); assay type: cell-based, Human; details: rebastinib 0.003-1 μM, 30 min pre-incubation, MSU 100 μg/ml 4 hr
Protocol: as §2, §3, §4, §5

[9] = rebastinib 5 or 10 mg/kg i.v., LPS/D-GalN i.p. 5 hr

## COc1ccc(Cl)cc1C(=O)NCCc1ccc(S(=O)(=O)NC(=O)NC2CCCCC2)cc1 [glibenclamide]
LPS-primed d-THP-1 cells [1]
  nigericin-induced pyroptotic cell death (swelling, bubbles, lysis): significantly reduced
LPS-primed d-THP-1 cells [2]
  nigericin-induced ASC speck formation: greatly reduced

## 4-[4-[(5-tert-butyl-2-quinolin-6-ylpyrazol-3-yl)-carbamoylamino]-3-fluorophenoxy]-N-methylpyridine-2-carboxamide [rebastinib]
LPS-primed d-THP-1 cells [3]
  nigericin-induced IL-18 secretion: inhibited
LPS-primed d-THP-1 cells [3]; listed as present compound
  nigericin-induced IL-18 secretion: significantly reduced
[4]; 5 hr
  acute liver failure: liver bleeding and inflammation (gross liver morphology): attenuated
[4]; 5 hr, listed as present compound
  acute liver failure: liver bleeding and inflammation (gross liver morphology): significant attenuation
[4]; rebastinib 5 or 10 mg/kg i.v. 1 hr before LPS/D-GalN i.p., 5 hr
  liver tissue weight: decreases
[4]; [9]
  serum ALT level: decreased significantly
  serum AST level: decreased significantly
  serum CRE level: decreased significantly
  serum LDH level: decreased significantly
[4]; rebastinib 5 or 10 mg/kg i.v., LPS/D-GalN i.p. 5 hr, clinical chemistry analyzer
  serum biochemical parameters (AST, ALT, BUN, CRE, LDH): attenuated
LPS-induced ALI in mice
  LPS-induced lung morphology change and infiltration (H&E): significantly attenuated
LPS-induced ALI in mice; listed as Rebastinib
  LPS-induced lung morphology change and infiltration (H&E): attenuated
LPS-primed d-THP-1 cells [5]
  imiquimod-induced IL-1β secretion: inhibited
LPS-primed d-THP-1 cells [5]; listed as present compound
  imiquimod-induced IL-1β secretion: suppressed
LPS-primed d-THP-1 cells [6]
  nigericin-induced pyroptotic LDH release: inhibited
LPS-primed d-THP-1 cells [6]; listed as present compound
  nigericin-induced pyroptotic LDH release: inhibitory effect
LPS-primed d-THP-1 cells [7]
  nigericin-induced IL-1β secretion: inhibited
LPS-primed d-THP-1 cells [7]; listed as present compound
  nigericin-induced IL-1β secretion: significantly reduced
LPS-primed d-THP-1 cells [1]
  nigericin-induced pyroptotic cell death (swelling, bubbles, lysis): inhibited
LPS-primed d-THP-1 cells [1]; listed as present compound
  nigericin-induced pyroptotic cell death (swelling, bubbles, lysis): significantly reduced
LPS-primed d-THP-1 cells [8]
  MSU-induced IL-1β secretion: inhibited
LPS-primed d-THP-1 cells [8]; listed as present compound
  MSU-induced IL-1β secretion: suppressed
LPS-primed d-THP-1 cells [2]
  nigericin-induced ASC speck formation: inhibited
LPS-primed d-THP-1 cells [2]; listed as present compound
  nigericin-induced ASC speck formation: greatly reduced
